Data from patent US20040152994A1, “Liver function test” (priority 2001, published 2004).

Test system: hepatic glycine conjugation
Settings: in vivo
Procedure: The test is carried out in the morning on an empty stomach after an overnight fast.
To equilibrate the body's glycine pool, an oral bolus of 3 g of glycine dissolved in 200 ml of water is given 1 hour prior to tracer administration.
At t=0 min, a weight adjusted dose of [^13C−1]-glycine (eg. 150 mg for 44.5 to 95.2 kg body weight) was given orally. Breath samples are taken subsequently every 10 minutes over a period of 300 minutes.
At t=160 min, a second dose of [^13C−1]-glycine was given, followed by three equal dozes of sodium benzoate (eg. 284.2 mg) at 170, 180 and 190 minutes.
Breath samples are measured for ^13CO2 content above base line, ie. the mean of 3 pre-test samples. Time to peak of ^13CO2 exhalation, ^13CO2 exhalation in percentage of given dose [% dose/hour] and cumulative ^13CO2 exhalation over time are determined. Mathematical modelling of the various curves is used to de-convolute the dose recovery curves of parts A and B.
The breath test consisted of two parts, A and B, that were at first carried out on 2 consecutive days and later combined into an one-day protocol.
Part A; After an overnight fast, subjects were given orally a weight adjusted dose of the tracer ^13C-glycine dissolved in water
Part B: After an, overnight fast, subjects were given orally the same amount of tracer plus an optimised amount of sodium benzoate.
For the one-day protocol, part B commenced 130 min after the start of part A.
Breath samples were collected in 10 min intervals.
10 volunteers (5 women, 5 men) with no medical history of liver problems were used as control group.
9 in-patients (6 women, 3 men) with varying stages of liver failure and different disease etiology were tested. Ethical approval for this ^13CO2-breath test, study was sought and obtained from the Tayside Healthboard Ethics Committee.

Time to peak PDR in patients compared to the control group: significantly delayed | highest GCa-value (apparent glycine conjugation) in patients: 23.26% | mean PDRm ratio: 0.59
Structure (SMILES): NC[13C](=O)O [^13C-glycine, [^13C−1]-glycine]
